{
  "source": "patent US20040241194A1",
  "about": "“Food supplement for animals” (Phytosynthese, priority 2001, published 2004)",
  "key": {"[1]": {"experiment": "Influence on growth of chickens, open-label study versus monensin", "type": "in vivo", "conditions": "for Mean daily weight gain: composition at 1.5 kg per tonne", "procedure": "The parameters considered are the performance index and the mean daily weight gain. The composition of the invention is administered at the rate of 1.5 kg per tonne."}, "[2]": {"experiment": "Influence on growth, study on white free-range chickens", "type": "in vivo", "procedure": "This test is conducted under the same conditions by administering 2 kg of the composition of the invention per tonne to four batches of chickens."}},
  "data": [
    {"smiles": "CC[C@@]1([C@@H]2O[C@@H]([C@H]3O[C@@](O)(CO)[C@H](C)C[C@@H]3C)C[C@@H]2C)CC[C@H]([C@]2(C)CC[C@]3(C[C@H](O)[C@@H](C)[C@@H]([C@@H](C)[C@@H](OC)[C@H](C)C(=O)O)O3)O2)O1", "note": "[Control, monensin]", "values": [
      {"measurement": "Mean weight", "setting": "[1]; Table VI batch", "value": 2.083, "unit": "kg"},
      {"measurement": "Performance index", "setting": "[1]; Table VI batch", "value": 87},
      {"measurement": "Mean daily weight gain", "setting": "[1]; Table VI batch", "value": 25.32, "unit": "g"},
      {"measurement": "Mean weight", "setting": "[1]; Table VII batch", "value": 2.169, "unit": "kg"},
      {"measurement": "Performance index", "setting": "[1]; Table VII batch", "value": 95},
      {"measurement": "Mean daily weight gain", "setting": "[1]; Table VII batch", "value": 26.46, "unit": "g"},
      {"measurement": "Feed conversion index (quantity of feed for obtaining 1 kg of chicken)", "setting": "[2]; General Mean", "value": 2.979},
      {"measurement": "Mean weight", "setting": "[2]; General Mean", "value": 2.116, "unit": "kg"},
      {"measurement": "Mean daily weight gain", "setting": "[2]; General Mean, composition at 2 kg per tonne", "value": 25.46, "unit": "g"},
      {"measurement": "Feed conversion index (quantity of feed for obtaining 1 kg of chicken)", "setting": "[2]; Mean of the 1st third", "value": 2.810},
      {"measurement": "Mean daily weight gain", "setting": "[2]; Mean of the 1st third", "value": 26.30, "unit": "g"},
      {"measurement": "Mean weight", "setting": "[2]; Mean of the 1st third", "value": 2.265, "unit": "kg"},
      {"measurement": "Feed conversion index (quantity of feed for obtaining 1 kg of chicken)", "setting": "[2]; Mean of the 2nd third", "value": 2.960},
      {"measurement": "Mean daily weight gain", "setting": "[2]; Mean of the 2nd third", "value": 25.48, "unit": "g"},
      {"measurement": "Mean weight", "setting": "[2]; Mean of the 2nd third", "value": 2.131, "unit": "kg"},
      {"measurement": "Feed conversion index (quantity of feed for obtaining 1 kg of chicken)", "setting": "[2]; Mean of the 3rd third", "value": 3.167},
      {"measurement": "Mean daily weight gain", "setting": "[2]; Mean of the 3rd third", "value": 24.64, "unit": "g"},
      {"measurement": "Mean weight", "setting": "[2]; Mean of the 3rd third", "value": 2.054, "unit": "kg"}
    ]}
  ]
}
